# Experimental data taken from patent US9358233B2, “Method for treating acute myeloid leukemia” (priority 2010, dated 2016).
# Tested on: patients with relapsed/refractory AML
# Assay: Clinical trial of BI 6727 in combination with LD-Ara-C in AML patients
# Format: in vivo
# Procedure: BI 6727 (350 mg) was administered as a one-hour intravenous infusion on Days 1+15 every 28 days in combination with fixed dose LD-Ara-C (low-dose cytarabine) (20 mg twice daily s.c. [subcutaneous]). The starting dose of BI 6727 was based on the MTD previously determined in solid tumor patients. Patients with no progression after the first cycle were allowed to continue treatment.
# [1] = preliminary, 32 patients with relapsed/refractory AML, different BI 6727 doses in combination with LD-Ara-C
smiles,measurement,setting,value
"CC[C@@H]1C(=O)N(C)c2cnc(Nc3ccc(C(=O)N[C@H]4CC[C@H](N5CCN(CC6CC6)CC5)CC4)cc3OC)nc2N1C(C)C [BI 6727, N-[trans-4-[4-(cyclopropylmethyl)-1-piperazinyl]cyclohexyl]-4-[[(7R)-7-ethyl-5,6,7,8-tetrahydro-5-methyl-8-(1-methylethyl)-6-oxo-2-pteridinyl]amino]-3-methoxy-benzamide]",MTD,BI 6727 d1+15q28d in combination with LD-Ara-C,350 mg
same,DLTs as rated per protocol (kind),"human, in vivo","pneumonia, mucositis, hypersensitivity/allergic reaction and myocardial infarction"
same,"Dose-limiting toxicities (DLTs), number of patients","human, in vivo",four
same,Clinical activity,"in combination with LD-Ara-C, AML patients",showed first signs of clinical activity
same,"Best response: incomplete blood count recovery (CRi) or complete remission (CR), number of patients",[1],seven
same,"Best response: partial remission, number of patients",[1],1 patients
same,"Best response: temporarily stable blood values (""no change""), number of patients",[1],Six
same,"Progression during or at the end of the first-treatment cycle, number of patients",[1],Eleven
